Reference: US20240360126A1, “PYRAZOLO[3,4-B]PYRIDINE COMPOUNDS FOR THE TREATMENT OF AUTOIMMUNE DISEASE” (Hoffmann-La Roche Inc., priority 2021, published 2024)

Assays:
[1] = target: T1, TLR9 (Homo sapiens, UniProt Q9NR96); test: Human PBMC cell-based assay; parameters: These cells express TLR7, TLR8, or TLR9, and therefore are natural responders to respective ligand stimulation; endogenous in cells; host or cells: human PBMC from healthy donor whole blood; settings: CpG ODN 2216 at 1 μM, read-out: hPBMC/TLR9 IC50
T1 sequence (Q9NR96 26-1032): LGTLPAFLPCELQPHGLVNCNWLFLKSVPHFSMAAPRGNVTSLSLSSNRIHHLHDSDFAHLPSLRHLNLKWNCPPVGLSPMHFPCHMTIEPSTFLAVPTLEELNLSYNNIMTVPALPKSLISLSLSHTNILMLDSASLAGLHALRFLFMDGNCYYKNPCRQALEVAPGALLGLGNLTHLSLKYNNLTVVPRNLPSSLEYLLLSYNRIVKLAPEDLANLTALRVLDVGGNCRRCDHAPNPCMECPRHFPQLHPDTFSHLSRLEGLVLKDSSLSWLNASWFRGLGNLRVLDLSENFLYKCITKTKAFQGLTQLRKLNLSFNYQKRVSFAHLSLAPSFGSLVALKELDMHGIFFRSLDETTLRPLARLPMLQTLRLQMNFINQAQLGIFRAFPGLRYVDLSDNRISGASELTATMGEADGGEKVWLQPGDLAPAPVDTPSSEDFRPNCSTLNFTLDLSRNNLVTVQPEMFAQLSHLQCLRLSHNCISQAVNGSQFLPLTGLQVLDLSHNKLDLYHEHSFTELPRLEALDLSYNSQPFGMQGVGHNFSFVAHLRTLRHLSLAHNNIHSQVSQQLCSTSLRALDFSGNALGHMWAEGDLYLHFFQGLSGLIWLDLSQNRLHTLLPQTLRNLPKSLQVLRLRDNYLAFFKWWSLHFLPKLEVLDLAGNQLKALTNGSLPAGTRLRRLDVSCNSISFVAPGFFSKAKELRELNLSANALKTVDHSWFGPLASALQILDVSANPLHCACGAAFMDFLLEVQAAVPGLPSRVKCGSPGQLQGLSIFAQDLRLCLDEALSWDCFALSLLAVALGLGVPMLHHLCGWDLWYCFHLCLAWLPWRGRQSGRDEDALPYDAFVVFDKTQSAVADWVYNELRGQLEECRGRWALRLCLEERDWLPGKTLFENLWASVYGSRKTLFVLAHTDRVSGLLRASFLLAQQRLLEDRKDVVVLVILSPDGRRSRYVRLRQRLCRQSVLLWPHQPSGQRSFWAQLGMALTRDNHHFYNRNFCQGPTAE
Excerpt: Unlike the HEK reporter cell lines, human peripheral blood mononuclear cell (PBMC) represents primary human immune cells in blood mainly consisting of lymphocytes, monocytes, and dendritic cells. These cells express TLR7, TLR8, or TLR9, and therefore are natural responders to respective ligand stimulation. Upon activation of these TLRs, PBMCs secrete similar cytokines and chemokines in vitro and in vivo, and therefore the in vitro potency of a TLR7/8/9 antagonist in human PBMC is readily translatable to its pharmacodynamics response in vivo.
Human peripheral blood mononuclear cells (PBMC) were isolated from freshly-drawn lithium-heparinized (Lithium Heparin Plus blood Collection tube, BD Vacutainer®) healthy donor whole blood by density gradient (Ficoll-Paque™ PLUS, GE Healthcare life Sciences). Briefly, […] was diluted with 25 mL PBS (without Ca^2+, Mg^2+) in a 50 mL conical tube with porous barrier (Leucosep tube, Greiner bio-one), where 15.5 mL Ficoll-Paque was under laid after spinning. Tubes were centrifuged for 20 minutes at 800×g (1946 rpm) with the brake in the off position, and PBMC were collected from the buffy coat. Cells were then washed twice in PBS, and red blood cells were lysed by suspension in 2 mL (Red Blood Cell Lysis Buffer, Alfa Aesar) for 5-10 minutes at room temperature. After a final wash in PBS, PBMC were resuspended at a final concentration of 2×10^6 cells/mL in RPMI-1640 media with GlutaMAX™ (Gibco) supplemented with 10% Fetal Bovine Serum (Sigma) and plated at 150 μL/well (3×10^5 cells/well) in tissue culture treated round bottom 96-well plates (Corning Incorporated). Antagonist compounds (compounds of this invention) solubilized and serial diluted in 100% DMSO were added in duplicate to cells to yield a final concentration of 1% DMSO (v/v). PBMC were incubated with antagonist compounds for 30 minutes at 37° C., 5% CO2 before adding various TLR agonist reagents in 48 μL complete media per well as follows (final concentrations indicated): CpG ODN 2216 (InvivoGen) at 1 μM for TLR9, ORN 06/LyoVec (InvivoGen) at […] for TLR8 and R848 (InvivoGen) at 1 μg/mL for TLR7 and TLR8. PBMC were incubated overnight at 37° C. with 5% C02. Cell culture supernatants were collected, and levels of various human cytokines were assessed by Luminex assay (ProcartaPlex™ Multiplex Immunoassay, Invitrogen) or ELISA procedure according to the manufacturer's recommended protocol (eBioscience, ThermoFisher Scientific). Viability of the cells was also checked with Cell Viability Assay (CellTiter Glo® Luminescent Cell Viability Assay, Promega).

[2] = target: T2, hERG K+ channel (Homo sapiens, UniProt Q12809); test: hERG channel inhibition assay (patch-clamp, CHO-hERG cells); assay type: cell-based; settings: for IC50 / IC20: CHO-hERG cells, whole-cell patch-clamp; for IC20: human, CHO cells stably expressing hERG; for hERG IC20/TLR7 IC50 / hERG IC20/TLR8 IC50 / hERG IC20/TLR9 IC50: safety ratio
T2 construct: expressed in transfected cells; host or cells: CHO (Chinese hamster ovary)
T2 sequence (Q12809 whole entry): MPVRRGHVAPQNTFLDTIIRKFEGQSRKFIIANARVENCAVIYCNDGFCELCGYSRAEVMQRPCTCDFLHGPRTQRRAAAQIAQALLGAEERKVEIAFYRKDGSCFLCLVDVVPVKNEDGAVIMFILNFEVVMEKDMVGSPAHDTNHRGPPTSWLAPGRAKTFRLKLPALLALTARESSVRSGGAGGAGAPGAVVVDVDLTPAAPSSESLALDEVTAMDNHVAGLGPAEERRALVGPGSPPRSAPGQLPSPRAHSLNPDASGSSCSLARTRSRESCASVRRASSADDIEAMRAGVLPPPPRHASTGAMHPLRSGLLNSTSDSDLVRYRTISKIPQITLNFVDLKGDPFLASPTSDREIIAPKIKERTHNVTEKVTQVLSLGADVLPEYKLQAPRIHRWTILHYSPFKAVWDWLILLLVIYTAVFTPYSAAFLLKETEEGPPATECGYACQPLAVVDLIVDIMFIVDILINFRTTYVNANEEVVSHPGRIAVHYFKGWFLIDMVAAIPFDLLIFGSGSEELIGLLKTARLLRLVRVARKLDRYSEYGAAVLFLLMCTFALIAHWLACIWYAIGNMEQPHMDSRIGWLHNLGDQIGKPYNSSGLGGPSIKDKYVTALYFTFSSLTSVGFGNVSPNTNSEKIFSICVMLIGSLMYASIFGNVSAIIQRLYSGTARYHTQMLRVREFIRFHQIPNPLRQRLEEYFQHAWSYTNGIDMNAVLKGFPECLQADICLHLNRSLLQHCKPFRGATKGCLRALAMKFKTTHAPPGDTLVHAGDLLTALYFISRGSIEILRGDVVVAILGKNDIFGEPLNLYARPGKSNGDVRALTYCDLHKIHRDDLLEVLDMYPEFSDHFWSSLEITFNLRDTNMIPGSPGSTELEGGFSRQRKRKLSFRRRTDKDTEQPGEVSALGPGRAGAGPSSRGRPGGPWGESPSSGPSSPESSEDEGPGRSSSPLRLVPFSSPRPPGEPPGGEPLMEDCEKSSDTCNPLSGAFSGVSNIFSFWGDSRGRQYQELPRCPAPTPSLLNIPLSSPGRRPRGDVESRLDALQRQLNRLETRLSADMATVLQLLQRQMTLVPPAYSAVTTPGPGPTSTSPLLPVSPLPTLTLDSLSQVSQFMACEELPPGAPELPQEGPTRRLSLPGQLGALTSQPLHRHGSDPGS
Protocol: The hERG K^+ channels were cloned in humans and stably expressed in a CHO (Chinese hamster ovary) cell line. CHOhERG cells were used for patch-clamp (voltage-clamp, whole-cell) experiments. Cells were stimulated by a voltage pattern to activate hERG channels and conduct IKhERG Currents (rapid delayed outward rectifier potassium current of the hERG channel). After the cells were stabilized for a few minutes, the amplitude and kinetics of IKhERG were recorded at a stimulation frequency of 0.1 Hz (6 bpm). Thereafter, the test compound was added to the preparation at increasing concentrations. For each concentration, an attempt was made to reach a steady-state effect, usually, this was achieved within 3-10 min at which time the next highest concentration was applied. The amplitude and kinetics of IKhERG are recorded in each concentration of the drug which were compared to the control values (taken as 100%). (references: Redfe W S, Carlsson L, Davis A S, Lynch W G, MacKenzie I, Palethorpe S, Siegl P K, Strang I, Sullivan A T, Wallis R, Camm A J, Hammond T G. 2003; Relationships between preclinical cardiac electrophysiology, clinical QT interval prolongation and torsade de pointes for a broad range of drugs: evidence for a provisional safety margin in drug development. Cardiovasc. Res. 58:32-45, Sanguinetti M C, Tristani-Firouzi M. 2006; hERG potassium channels and cardiac arrhythmia. Nature 440:463-469, Webster R, Leishman D, Walker D. 2002; Towards a drug concentration effect relationship for QT prolongation and torsades de pointes. Curr. Opin. Drug Discov. Devel. 5:116-26).

Row | Compound | IC50 [1] [µM] | IC50 [2] [µM] | IC20 [2] [µM] | hERG IC20/TLR7 IC50 [2] | hERG IC20/TLR8 IC50 [2] | hERG IC20/TLR9 IC50 [2]
1 | Cc1cc(N2CCC(c3ccc(N4CCNCC4)cc3)CC2)c2cnn(C)c2n1 [Example 1, 1,6-dimethyl-4-[4-(4-piperazin-1-ylphenyl)-1-piperidyl]pyrazolo[3,4-b]pyridine] | – | > 10 | 4 | 75.5 | 333.3 | 14.5
2 | Cc1cc(N2CCC(c3ccc(N4CCNCC4)cn3)CC2)c2cnn(C)c2n1 [Example 2, 1,6-dimethyl-4-[4-(5-piperazin-1-yl-2-pyridyl)-1-piperidyl]pyrazolo[3,4-b]pyridine] | 0.47 | > 20 | > 10 | >370.4 | >476.2 | >70.4
3 | Cc1cc(N2CCNCC2)ncc1C1CCN(c2ccnc3c2cnn3C)CC1 [Example 6, 1-methyl-4-[4-(4-methyl-6-piperazin-1-yl-3-pyridyl)-1-piperidyl]pyrazolo[3,4-b]pyridine] | 0.617 | > 10 | 4.4 | 628.6 | 118.9 | 21.2
4 | Cc1cc(N2CCC(c3ncc(N4CCNCC4)cc3C)CC2)c2cnn(C)c2n1 [Example 7, 1,6-dimethyl-4-[4-(3-methyl-5-piperazin-1-yl-2-pyridyl)-1-piperidyl]pyrazolo[3,4-b]pyridine] | 0.42 | > 20 | 5.1 | 463.6 | 175.9 | 98.1
5 | Cc1cc(N2CCC(c3cnc(N4CCNCC4)nc3C)CC2)c2cnn(C)c2n1 [Example 11, 1,6-dimethyl-4-[4-(4-methyl-2-piperazin-1-yl-pyrimidin-5-yl)-1-piperidyl]pyrazolo[3,4-b]pyridine] | – | > 20 | 7.5 | 202.7 | 178.6 | 72.1
6 | COc1cc(N2CCNCC2)cnc1C1CCN(c2cc(C)nc3c2cnn3C)CC1 [Example 14, 4-[4-(3-methoxy-5-piperazin-1-yl-2-pyridyl)-1-piperidyl]-1,6-dimethyl-pyrazolo[3,4-b]pyridine] | 0.34 | – | – | – | – | –
7 | CO[C@@H]1CN(c2ccc([C@H]3CCN(c4cc(C)nc5c4cnn5C)C[C@@H]3C)nc2)C[C@H]1N [Example 36, (3R,4R)-1-[6-[(3R,4S)-1-(1,6-dimethylpyrazolo[3,4-b]pyridin-4-yl)-3-methyl-4-piperidyl]-3-pyridyl]-4-methoxy-pyrrolidin-3-amine] | – | > 20 | > 10 | >555.6 | >476.2 | >58.8
8 | COC[C@H]1CN(c2ccc([C@H]3CCN(c4cc(C)nc5c4cnn5C)C[C@@H]3C)nc2)CCN1 [Example 37, 4-[(3R,4S)-4-[5-[(3R)-3-(methoxymethyl)piperazin-1-yl]-2-pyridyl]-3-methyl-1-piperidyl]-1,6-dimethyl-pyrazolo[3,4-b]pyridine] | – | > 20 | > 10 | >1111.1 | >769.2 | >30.1
9 | Cc1cc(N2CC[C@H](c3ccc(N4CC5(CNCCO5)C4)cn3)[C@@H](C)C2)c2cnn(C)c2n1 [Example 38, 2-[6-[(3R,4S)-1-(1,6-dimethylpyrazolo[3,4-b]pyridin-4-yl)-3-methyl-4-piperidyl]-3-pyridyl]-5-oxa-2,8-diazaspiro[3.5]nonane] | – | > 20 | 5.2 | 400.0 | 472.7 | 27.1

Second part, led by results:

Row | IC50 [1] [µM] | Compound | IC50 [2] [µM] | IC20 [2] [µM] | hERG IC20/TLR7 IC50 [2] | hERG IC20/TLR8 IC50 [2] | hERG IC20/TLR9 IC50 [2]
10 | 0.848 | Cc1cc(N2CCC(c3cnc(N4CCNCC4)cc3C)[C@H](C)C2)c2cnn(C)c2n1 (single isomer, unassigned) [Example 21, 1,6-dimethyl-4-[trans-3-methyl-4-(4-methyl-6-piperazin-1-yl-3-pyridyl)-1-piperidyl]pyrazolo[3,4-b]pyridine] | – | – | – | – | –
11 | 0.32 | Cc1cc(N2CCC(c3ncc(N4CCNCC4)cc3C)[C@H](C)C2)c2cnn(C)c2n1 (single isomer, unassigned) [Example 25, 1,6-dimethyl-4-[trans-3-methyl-4-(3-methyl-5-piperazin-1-yl-2-pyridyl)-1-piperidyl]pyrazolo[3,4-b]pyridine] | > 20 | > 10 | >1111.1 | >1428.6 | >102.0
12 | 0.38 | Cc1cc(N2CC[C@@H](c3ncc(N4CC5(CNCCO5)C4)cc3C)[C@H](C)C2)c2cnn(C)c2n1 [Example 27, 2-[6-[(3S,4R)-1-(1,6-dimethylpyrazolo[3,4-b]pyridin-4-yl)-3-methyl-4-piperidyl]-5-methyl-3-pyridyl]-5-oxa-2,8-diazaspiro[3.5]nonane] | – | – | – | – | –
13 | 0.41 | Cc1cc(N2CC[C@@H](c3ncc(N4CC[C@@H](N)[C@H](F)C4)cc3C)[C@H](C)C2)c2cnn(C)c2n1 [Example 31, (3R,4R)-1-[6-[(3S,4R)-1-(1,6-dimethylpyrazolo[3,4-b]pyridin-4-yl)-3-methyl-4-piperidyl]-5-methyl-3-pyridyl]-3-fluoro-piperidin-4-amine] | – | – | – | – | –
